Source: patent US7566737B2 (Genfit, priority 2002, dated 2009)

How the values were obtained:
PPARδ = target: T1, PPARδ (Mus musculus, UniProt P35396); test: In vivo evaluation of PPARδ properties (target gene expression, RT-PCR); conditions: PPARα knock-out mouse; 150 mg/kg/day for 3 days
T1 construct: from tissue; host or cells: heart and skeletal muscle (quadriceps) of PPARα knock-out mice
T1 sequence (P35396 1-440): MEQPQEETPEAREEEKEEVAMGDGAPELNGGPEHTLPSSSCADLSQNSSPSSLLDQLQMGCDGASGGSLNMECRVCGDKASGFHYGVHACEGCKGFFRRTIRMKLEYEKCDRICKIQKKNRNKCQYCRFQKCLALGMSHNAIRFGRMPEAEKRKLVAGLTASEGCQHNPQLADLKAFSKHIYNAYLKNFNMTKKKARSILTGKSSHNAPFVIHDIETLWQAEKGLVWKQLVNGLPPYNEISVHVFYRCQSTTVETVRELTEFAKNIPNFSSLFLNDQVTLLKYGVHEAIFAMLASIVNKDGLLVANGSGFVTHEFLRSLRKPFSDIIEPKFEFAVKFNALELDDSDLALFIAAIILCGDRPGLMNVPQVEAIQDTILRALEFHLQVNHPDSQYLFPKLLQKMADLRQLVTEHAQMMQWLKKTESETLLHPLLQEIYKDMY
Method: The PPARα knock-out mouse model was used to characterize in vivo PPARδ activation. Animals were treated for 3 days at the dose of 150 mg/kg/day. Total RNA was isolated from heart and skeletal muscle (quadriceps). Messenger RNAs were quantified by quantitative RT-PCR and expression levels were normalized using 18S gene as reference.
The […] knock-out mouse model was used to characterize in vivo PPARδ activation. Animals were treated for 3 days at the dose of 150 mg/kg/day. Total RNA was isolated from heart and skeletal muscle (quadriceps). Messenger RNAs were quantified by quantitative RT-PCR: total RNA was extracted from fragments of skeletal muscle or heart, using the RNeasy® Fibrous Tissue kit (Qiagen), according to the manufacturer's instructions. Reverse transcription was performed on 1 μg of total RNA (quantified using the Ribogreen RNA quantification kit (Molecular Probes)) by action of 1 μl of MMLV-RT enzyme (Sigma) during 1 hour at 37° C. in a total volume of 20 μl. The reaction conditions were 1× buffer (Sigma), 1.5 mM DTT, 0.18 mM dNTPs (Promega), 200 ng pdN6 (Amersham), 30 U RNase inhibitor (Sigma). Quantitative PCR was then carried out using the MyiQ Single-Color Real-Time PCR Detection System (Biorad). Briefly PCR reactions were performed in 96 well plates on 5 μl of diluted reverse transcription mix using the iQ SYBR Green Supermix kit. The reaction conditions were: 25 μl of volume reaction, 3 mM of MgCl2, and 0.5 μl of each reverse and forward primer solutions (10 pMol), Tm of 55° C. The primers pairs are specific for each target genes. […]
The quantity of fluorescence emitted is directly proportional to the quantity of complementary DNA present at the start of the reaction and amplified during the PCR. The relative levels of expression were determined using the standard curve for each transcript. […] The induction factor, i.e. the ratio between the relative signal induced by the compound according to the invention and the average of the values relating to the control group, was then calculated for each sample. […]

[1] = tested on: Human THP-1 monocytes differentiated in macrophages; test: Anti-inflammatory properties: cytokine secretion by LPS-stimulated macrophages; format: cell-based; conditions: pre-treated 24 hours, LPS 6 hours, vs non-treated cells
Method: TNF-α (tumor necrosis factor alpha) and IL-6 (interleukin-6) are two important markers of the inflammatory response to stress. The anti-inflammatory property of the compound 29 was evaluated as follows:
Human THP-1 monocytes were differentiated in macrophages by a 72 h incubation with 30 ng/ml of PMA (Phorbol Myristate Acetate). Differentiated macrophages were then treated with the inventive compound 29 at different concentrations during 24 h in culture medium without serum. Stimulation with LPS 1 μg/ml was finally performed during 6 hours (LPS bacterial endotoxin (Escherichia coli 0111 :B4) (Sigma, France) was reconstituted in distilled water).
TNF-α and IL-6 secretion were quantified in the culture medium of LPS-stimulated cells with TNF-α and IL6 ELISA kits (Immunotech, France).

[2] = tested on: C57BLKS-m Lepr^db transgenic mice; test: Antidiabetic effect on insulin and glucose; format: in vivo, mouse; conditions: 0.1 to 100 mg/Kg/day for 28 days
Method: Genetically modified C57BLKS-m Lepr^db mice were used to asses antidiabetic effect of the inventive compounds. Mice were randomized according to their plasma lipid, glucose and insulin contents. Treatments were administered once daily by gavage (10 ml/kg) for the duration of the treatment. For oral administrations, the drugs were suspended in CMC 1% or CMC 1%+Tween 80 0.1%. The plasma glucose was measured using a kit reagent from Biomerieux (France). The plasma insulin was measured using a solid phase two-site enzyme immunoassay from Crystal Chem Inc. (USA). The results are exemplified in FIGS. 5-1 to 5-4 which illustrate the activity of inventive compounds 29 and 62 on glucose and insulin.

PDK4 expression in the heart (PPARδ) | UCP2 expression in the skeletal muscle (PPARδ) | UCP3 expression in the heart (PPARδ) | SMILES | IL-6 secretion ([1]; 0.1, 1 and 10 μM) | TNF-α secretion ([1]; 1 and 10 μM) | plasma glucose level [2] | plasma insulin level [2]
Induction | Induction | Induction | Cc1cc(/C=C/C(=O)c2ccc(Br)cc2)cc(C)c1OC(C)(C)C(=O)O [Compound 41, 1-[4-bromophenyl]-3-[3,5-dimethyl-4-carboxydimethylmethyloxyphenyl]prop-2-en-1-one] | – | – | – | –
– | – | – | CSc1ccc(C(=O)/C=C/c2cc(C)c(OC(C)(C)C(=O)O)c(C)c2)cc1 [Compound 29, 1-[4-methylthiophenyl]-3-[3,5-dimethyl-4-carboxydimethylmethyloxyphenyl]prop-2-en-1-one] | decrease | decrease | decrease | decrease
